Test results reported in US20030032632A1, “Pharmaceutical aerosol formulation of salmeterol and fluticasone propionate” (priority 1999, published 2003).

Assays:
[1] = Solubility in ethanol/HFA134a and ethanol/HFA227 mixtures; assay type: physicochemical; conditions: mixtures of ethanol/HFA134a and ethanol/HFA227
[2] = Chemical degradation on storage in ethanol/HFA134a solution; assay type: physicochemical

| Compound | solubility relative to racemic salmeterol xinafoate [1] | chemical degradation on storage [2] |
| --- | --- | --- |
| O=C(O)c1ccc2ccccc2c1O.OCc1cc(C(O)CNCCCCCCOCCCCc2ccccc2)ccc1O (stereo not shown) [R-salmeterol xinafoate] | significantly more soluble |  |
| CCC(=O)O[C@]1(C(=O)SCF)[C@H](C)C[C@H]2[C@@H]3C[C@H](F)C4=CC(=O)C=C[C@]4(C)[C@@]3(F)[C@@H](O)C[C@@]21C [fluticasone propionate, (6a, 11b, 16a, 17a)-6,9-difluoro-11-hydroxy-16-methyl-3-oxo-17-(1-oxopropoxy) androsta-1,4-diene-17-carbothioic acid, S-fluoromethyl ester] |  | quite stable to chemical degradation |
| OCc1cc(C(O)CNCCCCCCOCCCCc2ccccc2)ccc1O (stereo not drawn) [salmeterol base, 4-hydroxy-α^1-[[[6-(4-phenylbutoxy)hexyl]amino]methyl]-1,3-benzenedimethanol] | substantially more soluble |  |
| OCc1cc(C(O)CNCCCCCCOCCCCc2ccccc2)ccc1O (stereo not drawn) [salmeterol, 4-hydroxy-α^1-[[[6-(4-phenylbutoxy)hexyl]amino]methyl]-1,3-benzenedimethanol] |  | shows a tendency to exhibit chemical degradation |
